Experimental data: US7829589B2, “Sulfonamide compounds and uses thereof” (Elixir Pharmaceuticals, Inc., priority 2005, dated 2010)
Entries after “also recorded” stand apart in the source; their conditions may differ. One block for each molecule: values may come before it. Ends that are not written are not given here.

Key:
C57bl/6 mice [1] = test: Ghrelin-induced food intake in mice dosed ip; type: in vivo; details: 1, 3, 10, 30 mpk ip after ghrelin ip; food intake at 1, 2, 4, 6 hours; relative to vehicle
Protocol: Ad libidum low fat chow-fed male C57bl/6 mice were acclimated to individual housing for >5 days prior to the experiment. On the morning of the experiment food was removed from the cages and animals were then dosed ip (n=8/group) with either vehicle or ghrelin followed one minute later by a second ip injection containing either vehicle or one of several doses of compound (1, 3, 10, 30mpk ip). Immediately after the second dosing food was returned to the cages and food intake was measured 1, 2, 4 and 6 hours later.

mice (DIO) = test: Glucose tolerance test (GTT), insulin sensitivity in DIO mice; type: in vivo
From the text: (§1) Group housed, male, C57bl/6 mice received high fat diet and water ad lib to establish diet-induced obesity, and for the duration of the experiment. After acclimating to individual housing for at least 5 days, mice were then acclimated to bid oral gavage with vehicle for 7 days. Once acclimated, mice were culled into equal groups (n>10/group) according to body weight and compound dosing began. Mice received either vehicle or compound (bid, po) for periods up to 28 days, during which body weight and food intake were measured daily. Representative cohorts (based on BW) for each group were removed at 7, 14, 21 or 28 days for glucose tolerance tests and tissue analysis.
On the night prior to the GTT, mice (DIO) within each dose group (n=8/group) had their body weight measured and were then fasted overnight for 16 hours prior to the GTT. On the morning of the GTT a 40 µL blood sample was removed from the tail for baseline fasted blood glucose and plasma insulin measurements. Mice then received their normal dose of compound. One hour later mice were dosed with glucose ([…], either IP or PO) and further tail bleeds (40 µL) were taken at 15, 30, 60 and 120 minutes after the glucose dose for blood glucose and plasma insulin measurements. Mice were sacrificed following the final sample time. Baseline fasted blood glucose levels are provided in FIG. 4a for compound 57 and in FIG. 4d for compound 94.

mice [2] = test: Plasma HbA1c and lipid profile after 28 day dosing; type: in vivo; details: at 28 days; for cholesterol levels / plasma HbA1c levels: versus vehicle
From the text: as §1
Mice are sacrificed by CO2 asphyxiation and terminal blood samples were collected via cardiac puncture. For HbA1c, whole blood is analyzed using a DCA2000+ glycated hemoglobin analyzer (Bayer Healthcare, Indianapolis, Ind.). Triglycerides, total cholesterol, and HDL-cholesterol were all measured using a Cholestech LDX lipid profile analyzer (Cholestech, Hayward, Calif.). As shown in FIG. 6 and FIG. 7, both plasma HbA1c and cholesterol levels were improved at 28 days in animals treated with compound 57 and compound 94 versus animals treated with vehicle alone.

C57bl/6 mice [3] = test: 28 days oral dosing in diet-induced obese mice: body weight and food intake; type: in vivo; details: bid po up to 28 days
From the text: as §1

GHS-R = GHS-R (Homo sapiens, UniProt Q92847); test: GHS-R antagonist activity (Ki) in a cell based assay
Chain of GHS-R (Q92847 whole entry, species assumed): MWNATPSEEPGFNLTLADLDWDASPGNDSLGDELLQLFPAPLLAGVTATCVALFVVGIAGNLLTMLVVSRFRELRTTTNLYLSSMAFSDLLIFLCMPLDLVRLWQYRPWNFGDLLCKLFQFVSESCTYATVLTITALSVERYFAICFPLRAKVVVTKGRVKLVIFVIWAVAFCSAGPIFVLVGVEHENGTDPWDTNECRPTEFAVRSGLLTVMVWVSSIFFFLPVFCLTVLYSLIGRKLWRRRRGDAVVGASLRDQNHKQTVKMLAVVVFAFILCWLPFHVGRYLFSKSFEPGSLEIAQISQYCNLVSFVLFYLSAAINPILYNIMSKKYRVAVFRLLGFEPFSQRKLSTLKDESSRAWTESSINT
Procedure, shortened: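 Transfected COS-7 cells were labelled 24 h with [^3H]-myo-inositol and preincubated 30 min at 37 °C in HEPES buffer pH 7.4 with 10 mM LiCl, optionally with 1 U/ml adenosine deaminase. Compound was applied for 45 min at 37 °C. [^3H]-inositol phosphates were extracted with perchloric acid and isolated by anion-exchange resin.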

[4] = Preliminary PK studies (IV/PO), oral bioavailability and brain/plasma ratio; type: in vivo; details: mouse, male diet-induced obese C57bl/6 mice; for Kp: brain and plasma, brain AUC vs plasma AUC; for bioavailability: oral bioavailability, plasma AUC PO vs IV
Protocol: Male, diet-induced obese, ad libidum fed, C57bl/6 mice were used for these preliminary PK studies. They were dosed (n=3 mice per data point) either IV or PO. Mice ere sacrificed and the blood/brains collected at the following times: IV samples were taken at 5, 15, 30, 60, 120, 240, 480 minutes after dosing; PO samples were taken at 15, 30, 60, 120, 240, 480 minutes after dosing. Plasma and brain samples were evaluated for the presence of compound. Oral bioavailability (% F) was determined by comparing the plasma AUCIV and AUCPO. The brain/plasma ratio was determined by comparing the brain AUC and plasma AUC values.

mice [5] = test: Fast refeed assay; type: in vivo
Protocol: Food is removed at 6 pm for an overnight (˜16 hour) fast. Beginning at 10 am on the next morning, mice are administered with either vehicle (e.g., saline+acetic acid, pH=5) or the compound of interest. Mice are then returned to their home cages and pre-weighed food (approximately 90 grams) is immediately returned to the food hoppers in each cage. The weight of the food remaining in the food hoppers is measured at 30 minutes, 1 hour, 2 hours, and 4 hours post compound/vehicle administration. Final body weights are then recorded for the mice.

[6] = FIGS. 4a-4f, 7 to 28 days oral dosing

Ki (GHS-R): < 0.1 µM
Kp [4]: 0.139
bioavailability [4]: 10.2%
Molecule: CCN(CC)CCCS(=O)(=O)N[C@H](CCc1ccccc1)c1nc(Cc2ccc(Br)cc2)no1 [Compound 57, 3-Diethylamino-propane-1-sulfonic acid {(R)-1-[3-(4-bromo-benzyl)-[1,2,4]oxadiazol-5-yl]-3-phenyl-propyl}-amide]
ghrelin-induced food intake (C57bl/6 mice [1]): block ghrelin-induced food intake; also recorded: reduced food intake
insulin sensitivity (mice (DIO); [6]): improvement in insulin sensitivity
insulin sensitivity (mice (DIO); GTT at 7 days of oral dosing): improved insulin sensitivity
insulin sensitivity (mice (DIO); GTT at 21 days of oral dosing): improved insulin sensitivity
cholesterol levels (mice [2]): improved cholesterol levels
plasma HbA1c levels (mice [2]): improved plasma HbA1c levels
body weight (C57bl/6 mice [3]): decreased body weight; also recorded: decrease in body weight
food intake (C57bl/6 mice [3]): No apparent effect on food intake

Molecule: CCN(CC)CCCS(=O)(=O)N[C@H](CCc1ccccc1)c1nc(-c2ccc(OC)cc2)n[nH]1 [Compound 94, 3-Diethylamino-propane-1-sulfonic acid {(R)-1-[5-(4-methoxy-phenyl)-2H-[1,2,4]triazol-3-yl]-3-phenyl-propyl}-amide]
ghrelin-induced food intake (C57bl/6 mice [1]): block ghrelin-induced food intake; also recorded: reduced food intake
insulin sensitivity (mice (DIO); [6]): improvement in insulin sensitivity
insulin sensitivity (mice (DIO); GTT at 7 days of oral dosing): improved insulin sensitivity
insulin sensitivity (mice (DIO); GTT at 28 days of oral dosing): improved insulin sensitivity
triglyceride levels (mice [2]): improved triglyceride levels
cholesterol levels (mice [2]): improved cholesterol levels
plasma HbA1c levels (mice [2]): improved plasma HbA1c levels
body weight (C57bl/6 mice [3]): decreased body weight; also recorded: decrease in body weight
food intake (C57bl/6 mice [3]): No apparent effect on food intake
Ki (GHS-R): < 0.1 µM
Kp [4]: 0.087
bioavailability [4]: 63.2%

Ki (GHS-R): 0.1 to 0.5 µM
Molecule: CCN(CC)CCCS(=O)(=O)N1CCC[C@H]1c1nc(Cc2ccc(Br)cc2)no1 [Compound 142, (S)-(3-{2-[3-(4-Bromo-benzyl)-[1,2,4]oxadiazol-5-yl]-pyrrolidine-1-sulfonyl}-propyl)-diethyl-amine]

Ki (GHS-R): 0.1 to 0.5 µM
Molecule: CCN(CC)CCCS(=O)(=O)N1CCC[C@H]1c1nc(-c2ccc(OC)cc2)no1 [Compound 143, (S)-Diethyl-(3-{2-[3-(4-methoxy-phenyl)-[1,2,4]oxadiazol-5-yl]-pyrrolidine-1-sulfonyl}-propyl)-amine]

Ki (GHS-R): 0.1 to 0.5 µM
Molecule: CCN(CC)CCCS(=O)(=O)N1CCC[C@@H]1c1nc(-c2ccc(OC)cc2)no1 [Compound 144, (R)-Diethyl-(3-{2-[3-(4-methoxy-phenyl)-[1,2,4]oxadiazol-5-yl]-pyrrolidine-1-sulfonyl}-propyl)-amine]

Ki (GHS-R): 0.1 to 0.5 µM
Molecule: CCN(CC)CCCS(=O)(=O)N1CCC[C@@H]1c1nc(Cc2ccc(Br)cc2)no1 [Compound 145, (R)-(3-{2-[3-(4-Bromo-benzyl)-[1,2,4]oxadiazol-5-yl]-pyrrolidine-1-sulfonyl}-propyl)-diethyl-amine]

Ki (GHS-R): 0.1 to 0.5 µM
Molecule: CCN(CC)CCCS(=O)(=O)N[C@@H](C)c1nc(Cc2ccc(Br)cc2)no1 [Compound 146, (S)-3-Diethylamino-propane-1-sulfonic acid {1-[3-(4-bromo-benzyl)-[1,2,4]oxadiazol-5-yl]-ethyl}-amide]

Ki (GHS-R): 0.1 to 0.5 µM
Molecule: CCN(CC)CCCS(=O)(=O)N[C@H](C)c1nc(Cc2ccc(Br)cc2)no1 [Compound 147, (R)-3-Diethylamino-propane-1-sulfonic acid {1-[3-(4-bromo-benzyl)-[1,2,4]oxadiazol-5-yl]-ethyl}-amide]

Ki (GHS-R): 0.5 to 1 µM
Molecule: CCN(CC)CCCS(=O)(=O)NCc1nc(-c2ccc(OC)cc2)no1 [Compound 148, 3-Diethylamino-propane-1-sulfonic acid [3-(4-methoxy-phenyl)-[1,2,4]oxadiazol-5-ylmethyl]-amide]

Ki (GHS-R): < 0.1 µM
Molecule: CCN(CC)CCCS(=O)(=O)N1CC[C@H]1c1nc(Cc2ccc(Br)cc2)no1 [Compound 149, (S)-(3-{2-[3-(4-Bromo-benzyl)-[1,2,4]oxadiazol-5-yl]-azetidine-1-sulfonyl}-propyl)-diethyl-amine]

Ki (GHS-R): 0.1 to 0.5 µM
Molecule: CCN(CC)CCCS(=O)(=O)N[C@@H](C)c1nc(-c2ccc(OC)cc2)no1 [Compound 150, (S)-3-Diethylamino-propane-1-sulfonic acid {1-[3-(4-methoxy-phenyl)-[1,2,4]oxadiazol-5-yl]-ethyl}-amide]

Ki (GHS-R): 0.1 to 0.5 µM
Molecule: CCN(CC)CCCS(=O)(=O)NCc1nc(Cc2ccc(Br)cc2)no1 [Compound 151, 3-Diethylamino-propane-1-sulfonic acid [3-(4-bromo-benzyl)-[1,2,4]oxadiazol-5-ylmethyl]-amide]

Ki (GHS-R): 0.1 to 0.5 µM
Molecule: CCN(CC)CCCS(=O)(=O)N[C@H](C)c1nc(-c2ccc(OC)cc2)no1 [Compound 152, (R)-3-Diethylamino-propane-1-sulfonic acid {1-[3-(4-methoxy-phenyl)-[1,2,4]oxadiazol-5-yl]-ethyl}-amide]

Ki (GHS-R): < 0.1 µM
Molecule: CCN(CC)CCCS(=O)(=O)N1CC[C@H]1c1nc(-c2ccc(OC)cc2)no1 [Compound 153, (S)-Diethyl-(3-{2-[3-(4-methoxy-phenyl)-[1,2,4]oxadiazol-5-yl]-azetidine-1-sulfonyl}-propyl)-amine]

Ki (GHS-R): < 0.1 µM
Molecule: CCN(CC)CCCS(=O)(=O)NC(C)(C)c1nc(Cc2ccc(Br)cc2)no1 [Compound 154, 3-Diethylamino-propane-1-sulfonic acid {1-[3-(4-bromo-benzyl)-[1,2,4]oxadiazol-5-yl]-1-methyl-ethyl}-amide]

Ki (GHS-R): 0.1 to 0.5 µM
Molecule: CCN(CC)CCCS(=O)(=O)NC(C)(C)c1nc(-c2ccc(OC)cc2)no1 [Compound 155, 3-Diethylamino-propane-1-sulfonic acid {1-[3-(4-methoxy-phenyl)-[1,2,4]oxadiazol-5-yl]-1-methyl-ethyl}-amide]

Ki (GHS-R): 0.1 to 0.5 µM
Molecule: CCN(CC)CCCS(=O)(=O)NCc1nc(-c2ccc(OC)cc2)n[nH]1 [Compound 156, 3-Diethylamino-propane-1-sulfonic acid [5-(4-methoxy-phenyl)-2H-[1,2,4]triazol-3-ylmethyl]-amide]

Ki (GHS-R): 0.1 to 0.5 µM
Molecule: CCN(CC)CCCS(=O)(=O)NCc1nc(Cc2ccc(Cl)cc2)n[nH]1 [Compound 157, 3-Diethylamino-propane-1-sulfonic acid [5-(4-chloro-benzyl)-2H-[1,2,4]triazol-3-ylmethyl]-amide]

Ki (GHS-R): 0.1 to 0.5 µM
Molecule: CCN(CC)CCCS(=O)(=O)N[C@@H](CC(C)C)c1nc(-c2ccc(OC)cc2)n[nH]1 [Compound 159, (S)-3-Diethylamino-propane-1-sulfonic acid {1-[5-(4-methoxy-phenyl)-2H-[1,2,4]triazol-3-yl]-3-methyl-butyl}-amide]

Ki (GHS-R): 0.1 to 0.5 µM
Molecule: CCN(CC)CCCS(=O)(=O)N[C@H](CC(C)C)c1nc(-c2ccc(OC)cc2)n[nH]1 [Compound 160, (R)-3-Diethylamino-propane-1-sulfonic acid {1-[5-(4-methoxy-phenyl)-2H-[1,2,4]triazol-3-yl]-3-methyl-butyl}-amide]

Molecule: substance P (RPKPQQFFGLM-NH2; ends and bridges not checked; UniProt P20366 58-68, looked up)
feeding activity (mice [5]): alters feeding activity
